Test results taken from PubChem BioAssay (NCI).
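Step 1: Grow cells in 96-well plates. Step 2: Expose to compound for 48 hours at 5 concentrations. Step 3: Interpolate endpoints linearly; if unreached, use highest concentration. TGI is the concentration that stops growth completely.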

What was measured:
Experiment in all cases: NCI anticancer screen, dose series, 48 h
HOP-18 NSCLC = system: HOP-18 NSCLC
RPMI-8226 leukemia = system: RPMI-8226 leukemia
UACC-257 melanoma = system: UACC-257 melanoma
OVCAR-4 ovarian = system: OVCAR-4 ovarian
MALME-3M melanoma = system: MALME-3M melanoma
K-562 leukemia = system: K-562 leukemia
SNB-78 CNS = system: SNB-78 CNS
DMS 273 small cell lung = system: DMS 273 small cell lung
LXFL 529 NSCLC = system: LXFL 529 NSCLC
EKVX NSCLC = system: EKVX NSCLC
HCT-116 colon = system: HCT-116 colon
SNB-19 CNS = system: SNB-19 CNS
UO-31 renal = system: UO-31 renal
ACHN renal = system: ACHN renal
XF 498 CNS = system: XF 498 CNS
HT29 colon = system: HT29 colon
A549 NSCLC = system: A549 NSCLC
786-0 renal = system: 786-0 renal
HOP-92 NSCLC = system: HOP-92 NSCLC
HL-60(TB) leukemia = system: HL-60(TB) leukemia
SF-295 CNS = system: SF-295 CNS
SF-268 CNS = system: SF-268 CNS
IGROV1 ovarian = system: IGROV1 ovarian
M14 melanoma = system: M14 melanoma
SK-OV-3 ovarian = system: SK-OV-3 ovarian
NCI-H226 lung = system: NCI-H226 lung
SNB-75 CNS = system: SNB-75 CNS
CCRF-CEM leukemia = system: CCRF-CEM leukemia
DMS 114 small cell lung = system: DMS 114 small cell lung
U251 CNS = system: U251 CNS
COLO 205 colon = system: COLO 205 colon
OVCAR-3 ovarian = system: OVCAR-3 ovarian
SK-MEL-28 melanoma = system: SK-MEL-28 melanoma
MOLT-4 leukemia = system: MOLT-4 leukemia
NCI-H23 lung = system: NCI-H23 lung
SN12C renal = system: SN12C renal
OVCAR-8 ovarian = system: OVCAR-8 ovarian
HCC-2998 colon = system: HCC-2998 colon
SW-620 colon = system: SW-620 colon
CAKI-1 renal = system: CAKI-1 renal
A498 renal = system: A498 renal
RXF 393 renal = system: RXF 393 renal
HCT-15 colon = system: HCT-15 colon
TK-10 renal = system: TK-10 renal
DLD-1 colon = system: DLD-1 colon
M19-MEL melanoma = system: M19-MEL melanoma
SK-MEL-5 melanoma = system: SK-MEL-5 melanoma
SR leukemia = system: SR leukemia
KM20L2 colon = system: KM20L2 colon
KM12 colon = system: KM12 colon
SF-539 CNS = system: SF-539 CNS
NCI-H460 lung = system: NCI-H460 lung
SK-MEL-2 melanoma = system: SK-MEL-2 melanoma
NCI-H522 lung = system: NCI-H522 lung
LOX IMVI melanoma = system: LOX IMVI melanoma
OVCAR-5 ovarian = system: OVCAR-5 ovarian
UACC-62 melanoma = system: UACC-62 melanoma
HOP-62 NSCLC = system: HOP-62 NSCLC

O=S(Cc1ccccn1)c1nc2ccccc2nc1-c1ccccc1 (stereo unspecified)
TGI (HOP-18 NSCLC): > 100 µM
TGI (RPMI-8226 leukemia): 91.3 µM
TGI (UACC-257 melanoma): 82 µM
TGI (OVCAR-4 ovarian): > 100 µM
TGI (MALME-3M melanoma): 97.7 µM
TGI (K-562 leukemia): > 100 µM
TGI (SNB-78 CNS): 94 µM
TGI (DMS 273 small cell lung): > 100 µM
TGI (LXFL 529 NSCLC): > 100 µM
TGI (EKVX NSCLC): 73.7 µM
TGI (HCT-116 colon): > 100 µM
TGI (SNB-19 CNS): > 100 µM
TGI (UO-31 renal): 90.4 µM
TGI (ACHN renal): > 100 µM
TGI (XF 498 CNS): 47.3 µM
TGI (HT29 colon): > 100 µM
TGI (A549 NSCLC): > 100 µM
TGI (786-0 renal): > 100 µM
TGI (HOP-92 NSCLC): 83.3 µM
TGI (HL-60(TB) leukemia): 80.7 µM
TGI (SF-295 CNS): > 100 µM
TGI (SF-268 CNS): > 100 µM
TGI (IGROV1 ovarian): 73.3 µM
TGI (M14 melanoma): > 100 µM
TGI (SK-OV-3 ovarian): > 100 µM
TGI (NCI-H226 lung): 76.2 µM
TGI (SNB-75 CNS): 79.6 µM
TGI (CCRF-CEM leukemia): > 100 µM
TGI (DMS 114 small cell lung): 69.6 µM
TGI (U251 CNS): > 100 µM
TGI (COLO 205 colon): 32.8 µM
TGI (OVCAR-3 ovarian): > 100 µM
TGI (SK-MEL-28 melanoma): > 100 µM
TGI (MOLT-4 leukemia): > 100 µM
TGI (NCI-H23 lung): > 100 µM
TGI (SN12C renal): > 100 µM
TGI (OVCAR-8 ovarian): > 100 µM

CC[C@@]12N=C(N(C)C)C[C@]1(O)ON=C2C
TGI (HOP-18 NSCLC): > 100 µM
TGI (RPMI-8226 leukemia): > 100 µM
TGI (HCC-2998 colon): > 100 µM
TGI (SW-620 colon): > 100 µM
TGI (OVCAR-4 ovarian): > 100 µM
TGI (MALME-3M melanoma): > 100 µM
TGI (K-562 leukemia): > 100 µM
TGI (DMS 273 small cell lung): > 100 µM
TGI (LXFL 529 NSCLC): > 100 µM
TGI (EKVX NSCLC): > 100 µM
TGI (HCT-116 colon): > 100 µM
TGI (SNB-19 CNS): > 100 µM
TGI (UO-31 renal): > 100 µM
TGI (ACHN renal): > 100 µM
TGI (XF 498 CNS): > 100 µM
TGI (HT29 colon): > 100 µM
TGI (A549 NSCLC): > 100 µM
TGI (CAKI-1 renal): > 100 µM
TGI (786-0 renal): > 100 µM
TGI (A498 renal): > 100 µM
TGI (HOP-92 NSCLC): > 100 µM
TGI (HL-60(TB) leukemia): > 100 µM
TGI (RXF 393 renal): > 100 µM
TGI (SF-295 CNS): > 100 µM
TGI (SF-268 CNS): > 100 µM
TGI (HCT-15 colon): > 100 µM
TGI (IGROV1 ovarian): > 100 µM
TGI (TK-10 renal): > 100 µM
TGI (M14 melanoma): > 100 µM
TGI (DLD-1 colon): > 100 µM
TGI (SK-OV-3 ovarian): > 100 µM
TGI (M19-MEL melanoma): > 100 µM
TGI (SK-MEL-5 melanoma): > 100 µM
TGI (SR leukemia): > 100 µM
TGI (NCI-H226 lung): > 100 µM
TGI (KM20L2 colon): > 100 µM
TGI (SNB-75 CNS): > 100 µM
TGI (CCRF-CEM leukemia): > 100 µM
TGI (DMS 114 small cell lung): > 100 µM
TGI (KM12 colon): > 100 µM
TGI (SF-539 CNS): > 100 µM
TGI (U251 CNS): > 100 µM
TGI (COLO 205 colon): > 100 µM
TGI (NCI-H460 lung): > 100 µM
TGI (OVCAR-3 ovarian): > 100 µM
TGI (SK-MEL-28 melanoma): > 100 µM
TGI (SK-MEL-2 melanoma): > 100 µM
TGI (MOLT-4 leukemia): > 100 µM
TGI (NCI-H522 lung): > 100 µM
TGI (NCI-H23 lung): > 100 µM
TGI (SN12C renal): > 100 µM
TGI (OVCAR-8 ovarian): > 100 µM

CC(=O)O[C@H]1CCC2[C@@H]3CCC4=C(O)c5nocc5C[C@]4(C)C3CC[C@@]21C (stereo partly specified)
TGI (HOP-18 NSCLC): > 100 µM
TGI (LOX IMVI melanoma): > 100 µM
TGI (RPMI-8226 leukemia): > 100 µM
TGI (UACC-257 melanoma): > 100 µM
TGI (SW-620 colon): > 100 µM
TGI (OVCAR-4 ovarian): > 100 µM
TGI (MALME-3M melanoma): > 100 µM
TGI (K-562 leukemia): > 100 µM
TGI (OVCAR-5 ovarian): > 100 µM
TGI (SNB-78 CNS): > 100 µM
TGI (UACC-62 melanoma): > 100 µM
TGI (DMS 273 small cell lung): > 100 µM
TGI (LXFL 529 NSCLC): > 100 µM
TGI (EKVX NSCLC): > 100 µM
TGI (HCT-116 colon): > 100 µM
TGI (SNB-19 CNS): > 100 µM
TGI (UO-31 renal): > 100 µM
TGI (ACHN renal): > 100 µM
TGI (XF 498 CNS): > 100 µM
TGI (HT29 colon): > 100 µM
TGI (A549 NSCLC): > 100 µM
TGI (CAKI-1 renal): > 100 µM
TGI (786-0 renal): > 100 µM
TGI (A498 renal): > 100 µM
TGI (HOP-92 NSCLC): > 100 µM
TGI (RXF 393 renal): > 100 µM
TGI (SF-295 CNS): > 100 µM
TGI (SF-268 CNS): > 100 µM
TGI (HCT-15 colon): > 100 µM
TGI (IGROV1 ovarian): > 100 µM
TGI (HOP-62 NSCLC): > 100 µM
TGI (TK-10 renal): > 100 µM
TGI (M14 melanoma): > 100 µM
TGI (SK-OV-3 ovarian): > 100 µM
TGI (M19-MEL melanoma): > 100 µM
TGI (SK-MEL-5 melanoma): > 100 µM
TGI (NCI-H226 lung): > 100 µM
TGI (KM20L2 colon): > 100 µM
TGI (SNB-75 CNS): > 100 µM
TGI (CCRF-CEM leukemia): > 100 µM
TGI (DMS 114 small cell lung): > 100 µM
TGI (KM12 colon): > 100 µM
TGI (SF-539 CNS): > 100 µM
TGI (U251 CNS): > 100 µM
TGI (COLO 205 colon): > 100 µM
TGI (NCI-H460 lung): > 100 µM
TGI (OVCAR-3 ovarian): > 100 µM
TGI (SK-MEL-28 melanoma): > 100 µM
TGI (SK-MEL-2 melanoma): > 100 µM
TGI (MOLT-4 leukemia): > 100 µM
TGI (NCI-H522 lung): > 100 µM
TGI (NCI-H23 lung): > 100 µM
TGI (SN12C renal): > 100 µM
TGI (OVCAR-8 ovarian): > 100 µM

CN(C)c1c([O-])c(=[N+](C)C)c1=O
TGI (LOX IMVI melanoma): > 100 µM
TGI (HCC-2998 colon): > 100 µM
TGI (UACC-257 melanoma): > 100 µM
TGI (SW-620 colon): > 100 µM
TGI (K-562 leukemia): > 100 µM
TGI (OVCAR-5 ovarian): > 100 µM
TGI (SNB-78 CNS): > 100 µM
TGI (UACC-62 melanoma): > 100 µM
TGI (DMS 273 small cell lung): > 100 µM
TGI (LXFL 529 NSCLC): > 100 µM
TGI (EKVX NSCLC): > 100 µM
TGI (HCT-116 colon): > 100 µM
TGI (SNB-19 CNS): > 100 µM
TGI (UO-31 renal): > 100 µM
TGI (ACHN renal): > 100 µM
TGI (XF 498 CNS): > 100 µM
TGI (HT29 colon): > 100 µM
TGI (A549 NSCLC): > 100 µM
TGI (CAKI-1 renal): > 100 µM
TGI (786-0 renal): > 100 µM
TGI (A498 renal): > 100 µM
TGI (HOP-92 NSCLC): > 100 µM
TGI (HL-60(TB) leukemia): > 100 µM
TGI (RXF 393 renal): > 100 µM
TGI (SF-295 CNS): > 100 µM
TGI (SF-268 CNS): > 100 µM
TGI (HCT-15 colon): > 100 µM
TGI (IGROV1 ovarian): > 100 µM
TGI (HOP-62 NSCLC): > 100 µM
TGI (TK-10 renal): > 100 µM
TGI (M14 melanoma): > 100 µM
TGI (SK-OV-3 ovarian): > 100 µM
TGI (SR leukemia): > 100 µM
TGI (NCI-H226 lung): > 100 µM
TGI (SNB-75 CNS): > 100 µM
TGI (CCRF-CEM leukemia): > 100 µM
TGI (KM12 colon): > 100 µM
TGI (SF-539 CNS): > 100 µM
TGI (U251 CNS): > 100 µM
TGI (NCI-H460 lung): > 100 µM
TGI (OVCAR-3 ovarian): > 100 µM
TGI (SK-MEL-28 melanoma): > 100 µM
TGI (SK-MEL-2 melanoma): > 100 µM
TGI (MOLT-4 leukemia): > 100 µM
TGI (NCI-H522 lung): > 100 µM
TGI (NCI-H23 lung): > 100 µM
TGI (SN12C renal): > 100 µM
TGI (OVCAR-8 ovarian): > 100 µM
